A value given as a limit tells only on which side of the number the result lay.

For the experiment, the system named is SH-SY5Y. The experiment in a line: Neuroprotective activity against rotenone-induced cytotoxicity in human SH-SY5Y cells assessed as increase in cell viability at 1 to 20 uM incubated for 24 hrs by MTT assay relative to control. It counts as functional. As to conditions: dose 1-20 µM. (In general: Tetrazolium dyes change colour on reduction, which living cells bring about.)

On to `COc1cc(CCC(=O)Nc2nc3ccccc3s2)cc(OC)c1OC(=O)C1CCCN1C(=O)OC(C)(C)C` (stereo unspecified), for which the Activity is >80%.
Consider `COc1cc(/C=C/C(=O)N2CCCCC2)cc(OC)c1OC(=O)c1ccccn1`, for which the Activity was >80%.
For `COc1ccc(N2CCN(C(=O)CCc3cc(OC)c(OC(=O)c4ccccn4)c(OC)c3)CC2)cc1` the value was >80%.
For `COc1cc(CCC(=O)N2CCCCC2)cc(OC)c1OC(=O)C1CCCN1C(=O)OC(C)(C)C` (stereo unspecified) the value was >80%.
To `COc1cc(CCC(=O)NCc2ccc3c(c2)OCO3)cc(OC)c1OC(=O)c1ccccn1` belongs >80%; to `COc1cc(CCC(=O)N2CCN(c3ccccc3)CC2)cc(OC)c1OC(=O)c1ccccn1`, >80%.

(Values after ChEMBL document CHEMBL6177948, “Discovery of potential Leonurine-based therapeutic lead MJ210 attenuates Parkinson's disease pathogenesis via NF-κB and MAPK pathways: Mechanistic insights from in vitro and in vivo rotenone models” (Eur J Med Chem, 2025).)
